Assay results from patent US20250378953A1, “ORGAN DIGITAL TWIN SYSTEMS AND METHODS FOR CREATING AND USING SUCH SYSTEMS” (Yale University, priority 2022, published 2025).
Read-outs that look alike come from different tables or passages of the source.

Tested on: porcine kidney
Text: For the ex vivo normothermic perfusion of kidneys, data pertaining to the hemodynamics of the kidney were collected and monitored: kidney mass, urine output, arterial flow, arterial pressure, pump speed, hematocrit, and arterial oxygen saturation. To accomplish this, ZP-50N digital force gauges by Baoshishan were used to measure kidney mass and urine output; a Medtronic Bio-console device to measure flow, pressure, and pump speed; and a Medtronic Bio-trend device to measure hematocrit and oxygen saturation.
Data collection from these sensors was standardized at a rate of 0.2 Hz (approximately a data point every five seconds) and integrated via an open-source software written in Python. […] The act of collecting data from each sensor simultaneously presented a unique challenge in that a typical computer program is sequential in its execution, meaning that data collection from one sensor should not be able to occur until collection from another sensor is finished. Furthermore, the runtime complexity of the code block associated with each sensor meant that data collection from one sensor could potentially interfere with the collection from another, and vice-versa. To circumvent these issues, the code blocks for each sensor were run in separate threads using the Python threading library. This allowed each code block to be executed simultaneously in parallel (as opposed to sequentially in series), meaning data collection from one sensor was independent of data collection from all other sensors. After the data was extracted, the code block for each sensor transformed the data string by removing superfluous characters and converting the pertinent data into a float format. To upload the transformed data to the Azure cloud database the sys, platform, and pyodbc libraries were used to communicate with the edge device and establish a database connection using an SQL driver.
The “Blood gas data upload” feature allows one to manually input data collected from perfusate analysis assays. For our perfusion experiment, CG8+ and Renal Function Panel cartridges were used with iStat and Piccolo devices, respectively; however, the software can easily be modified to accommodate other perfusate assays.
Histamine was administered at two different time-points during the perfusion.

NCCc1c[nH]cn1 [histamine]
arterial flow after histamine (40 mg histamine on the arterial side at 240 minutes of perfusion): Flow immediately stopped | arterial flow after histamine (100 mg histamine on the arterial side at 90 minutes of perfusion): immediate halt of flow | time until flow normalized (after 40 mg histamine at 240 minutes, pump RPM slowly increased to 1900, no heparin): 30 min | time until flow increased and arterial pressure normalized (after 100 mg histamine at 90 min, heparin at 120 minute, pump RPM 2000): ≤ 60 min | arterial pressure while flow slowly returned (after 100 mg histamine at 90 min, 20k units heparin added at 120 minute, pump RPM increased to 2000, starting arterial pressure 15 mmHg): 40-60 mmHg | kidney weight after flow and pressures normalized (after first histamine administration, weight before histamine approximately 0.26 Kg): 0.27 to 0.28 kg | kidney weight after histamine (manual recordings) (after histamine at 90 minutes, weight before approximately 0.26 Kg): approximately 0.24 Kg | arterial pressure immediately after histamine (arterial administration of histamine): immediately increased | urine production (qualitative observation) (first histamine administration at 90 minutes): initiate after the first histamine administration
